Data as given in patent US20020081733A1, “METHOD TO PREPARE DRUG-RESISTANT, NON-MALIGNANT HEMATOPOIETIC CELLS” (priority 1998, published 2002).

Columns and labels:
[1] = test system: CML 34^+DR^+ CFC and LTC-IC; experiment: MTX sensitivity of NL and CML CFC and LTC-IC (serum-free methylcellulose assay / LTC); assay type: cell-based, human; conditions: increasing MTX concentrations, FIG. 2A, 2B
Experimental: (§1) FIG. 2. Drug sensitivity of untransduced cells. A) NL and CML 34^+DR^+ cells were plated in a serum-free methylcellulose assay with increasing MTX concentrations to determine the MTX sensitivity of CFC. B) NL 34^+DR^− cells (LTC-IC) and CML 34^+DR^+ (Ph^+ LTC-IC) cells were incubated for 1 week in serum-free medium and cytokines with increasing MTX concentrations and then replated in LTC for 5 weeks. The number of MTX resistant LTC-IC was determined by replating LTC derived progeny in methylcellulose without […]. C) NL and CML 34^+DR^+ cells were plated directly in methylcellulose with increasing concentrations of taxol. D) NL 34^+DR^− cells (LTC-IC) and CML 34^+DR^+ (Ph^+LTC-IC) were plated in liquid culture for 7 days with increasing concentrations of taxol and then replated in LTC.
To determine the MTX sensitivity of normal (NL) and CML CFC cells, NL and CML 34^+DR^+ cells were plated in a serum-free methylcellulose assay with increasing MTX concentrations (FIG. 2A). To determine the MTX sensitivity of NL and CML LTC-IC cells, NL 34^+DR^− cells (LTC-IC) and CML 34^+DR^+ (Ph^+ LTC-IC) cells were also incubated for I week in serum-free medium and cytokines, with increasing MTX concentrations. The cells were then replated in LTC for 5 weeks. The number of MTX resistant LTC-IC was determined by replating LTC derived progeny in methylcellulose assay without MTX (FIG. 2B).

CML and NL progenitors = experiment: Taxol sensitivity of NL and CML cells (methylcellulose / liquid culture then LTC); assay type: cell-based, human; conditions: increasing concentrations of taxol; FIG. 2C, 2D
Experimental: as §1
To determine the taxol sensitivity of NL and CML cells, NL and CML 34^+DR^+ and 34^+DR^− cells were plated either in liquid culture for 7 days with increasing concentrations of taxol and then replated in LTC (FIG. 2D). NL and CML cells were also plated directly in methylcellulose with increasing concentrations of taxol (FIG. 2C).

`CN(Cc1cnc2nc(N)nc(N)c2n1)c1ccc(C(=O)N[C@@H](CCC(=O)O)C(=O)O)cc1` [MTX, methotrexate] was tested, and the “MTX sensitivity of CML 34+DR+ CFC and LTC-IC relative to NL 34+DR+ CFC and NL 34+DR− LTC-IC” value [1] was “at least equally sensitive”.
In the case of `CC(=O)O[C@H]1C(=O)[C@@]2(C)[C@H]([C@H](OC(=O)c3ccccc3)[C@]3(O)C[C@H](OC(=O)[C@H](O)[C@@H](NC(=O)c4ccccc4)c4ccccc4)C(C)=C1C3(C)C)[C@]1(OC(C)=O)CO[C@@H]1C[C@@H]2O` [taxol], the “taxol sensitivity of CML versus NL progenitors” value (CML and NL progenitors) was “equal sensitivity”.
